Calls of active or inactive are those of the source.
Columns and labels:
[1] = biological target: T1, Histone-lysine N-methyltransferase NSD2 (Homo sapiens, UniProt O96028); type: biochemical
T1 sequence (O96028 whole entry): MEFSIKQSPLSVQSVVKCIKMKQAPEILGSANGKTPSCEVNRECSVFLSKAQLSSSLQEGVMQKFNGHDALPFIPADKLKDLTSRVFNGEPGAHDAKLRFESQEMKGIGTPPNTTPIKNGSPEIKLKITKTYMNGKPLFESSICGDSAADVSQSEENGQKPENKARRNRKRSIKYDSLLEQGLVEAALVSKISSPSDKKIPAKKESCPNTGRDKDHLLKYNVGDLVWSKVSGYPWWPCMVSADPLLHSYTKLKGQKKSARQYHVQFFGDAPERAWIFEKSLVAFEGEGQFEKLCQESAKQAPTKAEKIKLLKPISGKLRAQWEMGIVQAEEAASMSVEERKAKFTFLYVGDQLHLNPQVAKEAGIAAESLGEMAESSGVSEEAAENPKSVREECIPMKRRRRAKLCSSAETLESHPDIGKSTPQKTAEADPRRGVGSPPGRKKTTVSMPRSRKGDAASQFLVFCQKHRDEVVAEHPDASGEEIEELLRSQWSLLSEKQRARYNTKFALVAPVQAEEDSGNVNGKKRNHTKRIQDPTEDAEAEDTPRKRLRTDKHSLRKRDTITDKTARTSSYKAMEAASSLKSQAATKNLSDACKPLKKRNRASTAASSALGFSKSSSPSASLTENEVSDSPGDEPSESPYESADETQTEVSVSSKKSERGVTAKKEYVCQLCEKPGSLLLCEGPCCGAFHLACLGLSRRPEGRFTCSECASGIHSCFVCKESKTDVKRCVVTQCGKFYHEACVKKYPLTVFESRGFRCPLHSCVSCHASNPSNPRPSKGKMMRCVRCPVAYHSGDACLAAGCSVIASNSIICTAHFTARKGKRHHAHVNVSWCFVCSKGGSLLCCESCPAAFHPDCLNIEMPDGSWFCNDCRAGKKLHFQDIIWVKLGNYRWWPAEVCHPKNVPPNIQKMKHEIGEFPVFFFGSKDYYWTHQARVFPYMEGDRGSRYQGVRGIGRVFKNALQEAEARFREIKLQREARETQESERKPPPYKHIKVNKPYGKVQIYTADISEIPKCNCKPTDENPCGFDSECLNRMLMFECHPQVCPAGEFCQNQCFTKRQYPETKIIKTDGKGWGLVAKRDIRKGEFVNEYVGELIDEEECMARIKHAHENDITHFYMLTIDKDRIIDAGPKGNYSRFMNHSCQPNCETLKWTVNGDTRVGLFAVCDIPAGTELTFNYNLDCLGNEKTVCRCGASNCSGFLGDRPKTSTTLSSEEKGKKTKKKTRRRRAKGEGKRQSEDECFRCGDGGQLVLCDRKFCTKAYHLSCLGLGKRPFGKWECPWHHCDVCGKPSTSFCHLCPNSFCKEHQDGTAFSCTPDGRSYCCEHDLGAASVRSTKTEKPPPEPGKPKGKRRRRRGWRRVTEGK

[2] = biological target: Tyrosyl-DNA phosphodiesterase 2 (Homo sapiens, UniProt O95551); assay: human TDP2 enzyme inhibitors, dose response, biochemical, epi absorbance, IC50 (AID 743297)
[3] = biological target: T2, Sentrin-specific protease 8 (Homo sapiens, UniProt Q96LD8); assay: SENP8 protease inhibitors, SAR follow-up, biochemical, luminescence (AID 504501); type: functional
T2 sequence (Q96LD8 whole entry): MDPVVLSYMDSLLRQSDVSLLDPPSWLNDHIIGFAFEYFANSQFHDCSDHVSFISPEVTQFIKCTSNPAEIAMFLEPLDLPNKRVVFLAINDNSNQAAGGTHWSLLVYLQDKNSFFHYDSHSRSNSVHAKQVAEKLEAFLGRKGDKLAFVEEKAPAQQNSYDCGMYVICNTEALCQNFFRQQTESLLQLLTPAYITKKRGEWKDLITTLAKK

[4] = biological target: T3, Sentrin-specific protease 6 (Homo sapiens, UniProt Q9GZR1); assay: SAR Analysis of small molecule inhibitors of Sentrin-specific protease 6 (SENP6) using a Luminescent assay. [Related pubchem assays (depositor defined):AID2582, AID2599]; type: functional
T3 sequence (Q9GZR1 whole entry): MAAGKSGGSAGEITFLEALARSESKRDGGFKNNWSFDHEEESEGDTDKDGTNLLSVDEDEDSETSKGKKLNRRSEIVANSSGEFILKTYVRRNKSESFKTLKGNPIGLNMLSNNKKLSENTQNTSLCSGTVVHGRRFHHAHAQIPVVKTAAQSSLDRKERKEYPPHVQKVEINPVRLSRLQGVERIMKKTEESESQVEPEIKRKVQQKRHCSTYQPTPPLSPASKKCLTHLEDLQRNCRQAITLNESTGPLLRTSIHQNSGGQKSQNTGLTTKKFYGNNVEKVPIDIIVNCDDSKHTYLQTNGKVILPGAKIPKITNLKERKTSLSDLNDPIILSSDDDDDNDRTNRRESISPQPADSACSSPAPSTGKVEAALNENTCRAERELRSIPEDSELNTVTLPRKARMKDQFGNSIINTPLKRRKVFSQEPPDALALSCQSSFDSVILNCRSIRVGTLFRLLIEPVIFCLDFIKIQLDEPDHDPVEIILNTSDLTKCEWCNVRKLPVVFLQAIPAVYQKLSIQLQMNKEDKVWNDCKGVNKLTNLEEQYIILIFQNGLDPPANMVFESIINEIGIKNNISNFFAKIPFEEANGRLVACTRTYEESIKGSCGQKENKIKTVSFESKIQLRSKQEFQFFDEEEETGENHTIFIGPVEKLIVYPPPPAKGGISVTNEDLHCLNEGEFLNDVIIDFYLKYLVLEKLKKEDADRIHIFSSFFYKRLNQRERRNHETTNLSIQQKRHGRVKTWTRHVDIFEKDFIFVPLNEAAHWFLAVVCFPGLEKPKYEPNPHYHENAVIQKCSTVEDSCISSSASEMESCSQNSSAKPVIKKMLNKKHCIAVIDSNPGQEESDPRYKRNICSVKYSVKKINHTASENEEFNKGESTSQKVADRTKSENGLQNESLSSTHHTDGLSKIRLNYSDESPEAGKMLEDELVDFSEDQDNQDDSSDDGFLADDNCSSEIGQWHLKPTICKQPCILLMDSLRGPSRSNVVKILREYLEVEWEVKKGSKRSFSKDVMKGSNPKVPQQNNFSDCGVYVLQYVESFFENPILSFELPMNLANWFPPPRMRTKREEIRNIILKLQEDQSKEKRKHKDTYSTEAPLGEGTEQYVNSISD

Chain of Tyrosyl-DNA phosphodiesterase 2 (O95551 whole entry): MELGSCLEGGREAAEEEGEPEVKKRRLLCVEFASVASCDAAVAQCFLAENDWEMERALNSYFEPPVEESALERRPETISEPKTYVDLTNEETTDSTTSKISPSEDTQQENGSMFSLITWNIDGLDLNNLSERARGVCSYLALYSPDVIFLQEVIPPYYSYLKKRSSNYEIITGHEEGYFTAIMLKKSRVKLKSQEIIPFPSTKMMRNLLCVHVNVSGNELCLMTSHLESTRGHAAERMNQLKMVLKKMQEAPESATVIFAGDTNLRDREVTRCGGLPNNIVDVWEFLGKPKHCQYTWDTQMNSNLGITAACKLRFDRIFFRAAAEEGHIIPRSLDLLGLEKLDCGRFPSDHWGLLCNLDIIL

Row | SMILES | AC50 [1] | IC50 [2] | IC50 [3] | IC50 [4]
1 | CCOC(=O)C1=C(COC(=O)c2ccc([N+](=O)[O-])s2)NC(=O)NC1C (centres undefined) | 5.86 µM (active) | 52.5 µM (inactive) |  | 
2 | Oc1cccc(/C=N/Nc2cc(N3CCCC3)nc(N3CCCC3)n2)c1 |  |  | > 99 µM (inactive) | 20.4 µM (active)
